One assay has as its target SARS-CoV-2 Spike protein (Severe acute respiratory syndrome coronavirus 2, UniProt P0DTC2). The assay is described as follows: Ternary binding of SARS-CoV-2 Spike protein (293T cells expressing Spike-GFP, IgG-AF647, flow cytometry). The class given is cell-based. To be noted: 293T cells expressing Spike-GFP; IgG-AF647 10 μg/ml; repeat values/batches listed separately; read-out: SARS-CoV-2 Ternary binding EC50. As for the experimental part:
293T cells stably expressing SARS-CoV-2 Spike-GFP protein on their surface were incubated with a concentration range of compound for 30 minutes at 37° C.-5% CO2 in Roswell Park Memorial Institute Medium (RPMI)-5% low IgG serum with 10 μg/ml IgG-Alexa Fluor® 647 (AF647). The cells were washed twice using the same medium, resuspended in phosphate-buffered saline (PBS)-1% bovine serum albumin (BSA), and acquired on Attune™ NxT Flow Cytometer. In some embodiments, mean fluorescence intensity of AF647 as well as […] AF647 positive in GFP positive gate are reported as readouts in this assay.

In assay [1] the target is T1, SARS-CoV-2 Spike A (wild-type) (Severe acute respiratory syndrome coronavirus 2, UniProt P0DTC2).
T1 construct: purchased Meso Scale Diagnostics, LLC V-PLEX SARS-CoV-2 Panel 13 (ACE2) Kit / Panel 23 (ACE2) Kit
Kind of assay: MSD ACE2 competition assay (inhibition of Spike binding with ACE2, ECL), A (wild-type). To be noted: IC50 Wild Type, Wild Type Spike.

Values joined by “and” are separate entries in the source; they are usually repeats but may differ in a detail not shown here. Equal values may be shown once.

`CC[C@H](C)[C@H](NC(=O)[C@H](CC(C)C)NC(=O)[C@H](CC(=O)O)NC(=O)[C@H](CO)NC(=O)[C@@H](NC(=O)[C@H](CCCNC(=N)N)NC(=O)[C@H](CCSC)NC(=O)[C@H](CO)NC(=O)[C@H](C)NC(=O)[C@H](CCC(=O)O)NC(=O)[C@H](C)NC(=O)[C@H](Cc1c[nH]cn1)NC(=O)CNC(=O)[C@H](CC(C)C)NC(=O)[C@H](CCC(=O)O)NC(=O)[C@H](CC(=O)O)NC(=O)[C@H](CC(C)C)NC(=O)[C@H](CC(C)C)NC(=O)[C@H](CCCNC(=N)N)NC(=O)[C@H](CCSC)NC(=O)[C@@H](NC(=O)[C@H](CCC(=O)O)NC(=O)[C@H](Cc1ccc(O)cc1)NC(=O)[C@@H](NC(=O)[C@H](CCCCN)NC(=O)[C@H](CCC(N)=O)NC(=O)[C@H](CC(C)C)NC(=O)[C@@H](NC(=O)[C@H](Cc1c[nH]c2ccccc12)NC(=O)[C@H](CCC(=O)O)NC(=O)[C@H](CCCCN)NC(=O)[C@H](CC(=O)O)NC(C)=O)[C@@H](C)CC)[C@@H](C)CC)[C@@H](C)CC)C(C)C)C(=O)N[C@@H](Cc1ccc(O)cc1)C(=O)N[C@@H](CCC(=O)O)C(=O)N[C@@H](Cc1ccccc1)C(=O)N[C@@H](CCSC)C(=O)N[C@@H](CCCCN)C(=O)N[C@@H](CCCCN)C(=O)NCC(=O)O` [Compound 103]: the EC50 (usually the concentration giving half of the maximal effect) at SARS-CoV-2 Spike protein is > 10 nM. The IC50 – broadly, the concentration that gives 50% inhibition – in assay [1] turned out to be 6.22 nM.
With `CC[C@H](C)[C@H](NC(=O)[C@H](CC(C)C)NC(=O)[C@H](CC(=O)O)NC(=O)[C@H](CO)NC(=O)[C@@H](NC(=O)[C@H](CCCNC(=N)N)NC(=O)[C@H](CCSC)NC(=O)[C@H](CO)NC(=O)[C@H](C)NC(=O)[C@H](CCC(=O)O)NC(=O)[C@H](C)NC(=O)[C@H](Cc1c[nH]cn1)NC(=O)CNC(=O)[C@H](CC(C)C)NC(=O)[C@H](CCC(=O)O)NC(=O)[C@H](CC(=O)O)NC(=O)[C@H](CC(C)C)NC(=O)[C@H](CC(C)C)NC(=O)[C@H](CCCNC(=N)N)NC(=O)[C@H](CCSC)NC(=O)[C@@H](NC(=O)[C@H](CCC(=O)O)NC(=O)[C@H](Cc1ccc(O)cc1)NC(=O)[C@@H](NC(=O)[C@H](CCCCN)NC(=O)[C@H](CCC(N)=O)NC(=O)[C@H](CC(C)C)NC(=O)[C@@H](NC(=O)[C@H](Cc1c[nH]c2ccccc12)NC(=O)[C@H](CCC(=O)O)NC(=O)[C@H](CCCCN)NC(=O)[C@@H](N)CC(=O)O)[C@@H](C)CC)[C@@H](C)CC)[C@@H](C)CC)C(C)C)C(=O)N[C@@H](Cc1ccc(O)cc1)C(=O)N[C@@H](CCC(=O)O)C(=O)N[C@@H](Cc1ccccc1)C(=O)N[C@@H](CCSC)C(=O)N[C@@H](CCCCN)C(=O)N[C@@H](CCCCN)C(=O)NCC(=O)NCC(=O)NCC(=O)NCC(=O)N[C@@H](CC(=O)O)C(=O)N[C@H]1CSSC[C@@H](C(=O)N[C@H](C(=O)O)[C@@H](C)O)NC(=O)[C@H](Cc2c[nH]c3ccccc23)NC(=O)[C@H](C(C)C)NC(=O)[C@H](CC(C)C)NC(=O)[C@H](CCC(=O)O)NC(=O)CNC(=O)[C@H](CC(C)C)NC(=O)[C@H](Cc2c[nH]cn2)NC(=O)[C@H](Cc2c[nH]c3ccccc23)NC(=O)[C@H](C)NC1=O` [Compound 106], on SARS-CoV-2 Spike protein, the EC50 was 2.6 nM and 2.5 nM. The molecule also returned an IC50 in assay [1] of 22.1 nM.
`CC[C@H](C)[C@H](NC(=O)[C@H](CC(C)C)NC(=O)[C@H](CC(=O)O)NC(=O)[C@H](CO)NC(=O)[C@@H](NC(=O)[C@H](CCCNC(=N)N)NC(=O)[C@H](CCSC)NC(=O)[C@H](CO)NC(=O)[C@H](C)NC(=O)[C@H](CCC(=O)O)NC(=O)[C@H](C)NC(=O)[C@H](Cc1c[nH]cn1)NC(=O)CNC(=O)[C@H](CC(C)C)NC(=O)[C@H](CCC(=O)O)NC(=O)[C@H](CC(=O)O)NC(=O)[C@H](CC(C)C)NC(=O)[C@H](CC(C)C)NC(=O)[C@H](CCCNC(=N)N)NC(=O)[C@H](CCSC)NC(=O)[C@@H](NC(=O)[C@H](CCC(=O)O)NC(=O)[C@H](Cc1ccc(O)cc1)NC(=O)[C@@H](NC(=O)[C@H](CCCCN)NC(=O)[C@H](CCC(N)=O)NC(=O)[C@H](CC(C)C)NC(=O)[C@@H](NC(=O)[C@H](Cc1c[nH]c2ccccc12)NC(=O)[C@H](CCC(=O)O)NC(=O)[C@H](CCCCN)NC(=O)[C@H](CC(=O)O)NC(C)=O)[C@@H](C)CC)[C@@H](C)CC)[C@@H](C)CC)C(C)C)C(=O)N[C@@H](Cc1ccc(O)cc1)C(=O)N[C@@H](CCC(=O)O)C(=O)N[C@@H](Cc1ccccc1)C(=O)N[C@@H](CCSC)C(=O)N[C@@H](CCCCN)C(=O)N[C@@H](CCCCN)C(=O)NCC(=O)NCCOCCNC(=O)[C@@H]1CSCC(=O)N[C@@H](C)C(=O)N[C@@H](CO)C(=O)N[C@@H](Cc2ccc(O)cc2)C(=O)N[C@@H](Cc2c[nH]cn2)C(=O)N[C@@H](CC(C)C)C(=O)NCC(=O)N[C@@H](CCC(=O)O)C(=O)N[C@@H](CC(C)C)C(=O)N[C@@H](C(C)C)C(=O)N[C@@H](Cc2c[nH]c3ccccc23)C(=O)N2Cc3ccccc3C[C@H]2C(=O)NC(C)(C)C(=O)N1` [Compound 159]: the concentration for a half-maximal effect (EC50) at SARS-CoV-2 Spike protein is 3 nM and 2.8 nM.
The same measure, in the same setting: then `CC[C@H](C)[C@H](NC(=O)[C@H](CC(C)C)NC(=O)[C@H](CC(=O)O)NC(=O)[C@H](CO)NC(=O)[C@@H](NC(=O)[C@H](CCCNC(=N)N)NC(=O)[C@H](CCSC)NC(=O)[C@H](CO)NC(=O)[C@H](C)NC(=O)[C@H](CCC(=O)O)NC(=O)[C@H](C)NC(=O)[C@H](Cc1c[nH]cn1)NC(=O)CNC(=O)[C@H](CC(C)C)NC(=O)[C@H](CCC(=O)O)NC(=O)[C@H](CC(=O)O)NC(=O)[C@H](CC(C)C)NC(=O)[C@H](CC(C)C)NC(=O)[C@H](CCCNC(=N)N)NC(=O)[C@H](CCSC)NC(=O)[C@@H](NC(=O)[C@H](CCC(=O)O)NC(=O)[C@H](Cc1ccc(O)cc1)NC(=O)[C@@H](NC(=O)[C@H](CCCCN)NC(=O)[C@H](CCC(N)=O)NC(=O)[C@H](CC(C)C)NC(=O)[C@@H](NC(=O)[C@H](Cc1c[nH]c2ccccc12)NC(=O)[C@H](CCC(=O)O)NC(=O)[C@H](CCCCN)NC(=O)[C@H](CC(=O)O)NC(C)=O)[C@@H](C)CC)[C@@H](C)CC)[C@@H](C)CC)C(C)C)C(=O)N[C@@H](Cc1ccc(O)cc1)C(=O)N[C@@H](CCC(=O)O)C(=O)N[C@@H](Cc1ccccc1)C(=O)N[C@@H](CCSC)C(=O)N[C@@H](CCCCN)C(=O)N[C@@H](CCCCN)C(=O)NCC(=O)NCCOCCOCCOCCOCCOCCOCCOCCOCCC(=O)NCCOCCOCCOCCOCCOCCOCCOCCOCCNC(=O)[C@@H]1CSCC(=O)N[C@@H](C)C(=O)N[C@@H](CO)C(=O)N[C@@H](Cc2ccc(O)cc2)C(=O)N[C@@H](Cc2c[nH]cn2)C(=O)N[C@@H](CC(C)C)C(=O)NCC(=O)N[C@@H](CCC(=O)O)C(=O)N[C@@H](CC(C)C)C(=O)N[C@@H](C(C)C)C(=O)N[C@@H](Cc2c[nH]c3ccccc23)C(=O)N2Cc3ccccc3C[C@H]2C(=O)NC(C)(C)C(=O)N1` [Compound 160], with 1.4 nM and 2.2 nM; and `CC[C@H](C)[C@H](NC(=O)[C@H](CC(C)C)NC(=O)[C@H](CC(=O)O)NC(=O)[C@H](CO)NC(=O)[C@@H](NC(=O)[C@H](CCCNC(=N)N)NC(=O)[C@H](CCSC)NC(=O)[C@H](CO)NC(=O)[C@H](C)NC(=O)[C@H](CCC(=O)O)NC(=O)[C@H](C)NC(=O)[C@H](Cc1c[nH]cn1)NC(=O)CNC(=O)[C@H](CC(C)C)NC(=O)[C@H](CCC(=O)O)NC(=O)[C@H](CC(=O)O)NC(=O)[C@H](CC(C)C)NC(=O)[C@H](CC(C)C)NC(=O)[C@H](CCCNC(=N)N)NC(=O)[C@H](CCSC)NC(=O)[C@@H](NC(=O)[C@H](CCC(=O)O)NC(=O)[C@H](Cc1ccc(O)cc1)NC(=O)[C@@H](NC(=O)[C@H](CCCCN)NC(=O)[C@H](CCC(N)=O)NC(=O)[C@H](CC(C)C)NC(=O)[C@@H](NC(=O)[C@H](Cc1c[nH]c2ccccc12)NC(=O)[C@H](CCC(=O)O)NC(=O)[C@H](CCCCN)NC(=O)[C@H](CC(=O)O)NC(C)=O)[C@@H](C)CC)[C@@H](C)CC)[C@@H](C)CC)C(C)C)C(=O)N[C@@H](Cc1ccc(O)cc1)C(=O)N[C@@H](CCC(=O)O)C(=O)N[C@@H](Cc1ccccc1)C(=O)N[C@@H](CCSC)C(=O)N[C@@H](CCCCN)C(=O)N[C@@H](CCCCN)C(=O)NCC(=O)NCCOCCOCCOCCOCCOCCOCCOCCOCCNC(=O)[C@@H]1CSCC(=O)N[C@@H](C)C(=O)N[C@@H](CO)C(=O)N[C@@H](Cc2ccc(O)cc2)C(=O)N[C@@H](Cc2c[nH]cn2)C(=O)N[C@@H](CC(C)C)C(=O)NCC(=O)N[C@@H](CCC(=O)O)C(=O)N[C@@H](CC(C)C)C(=O)N[C@@H](C(C)C)C(=O)N[C@@H](Cc2c[nH]c3ccccc23)C(=O)N2Cc3ccccc3C[C@H]2C(=O)NC(C)(C)C(=O)N1` [Compound 161], with 2.2 nM; and `CC[C@H](C)[C@H](NC(=O)[C@H](CC(C)C)NC(=O)[C@H](CC(=O)O)NC(=O)[C@H](CO)NC(=O)[C@@H](NC(=O)[C@H](CCCNC(=N)N)NC(=O)[C@H](CCSC)NC(=O)[C@H](CO)NC(=O)[C@H](C)NC(=O)[C@H](CCC(=O)O)NC(=O)[C@H](C)NC(=O)[C@H](Cc1c[nH]cn1)NC(=O)CNC(=O)[C@H](CC(C)C)NC(=O)[C@H](CCC(=O)O)NC(=O)[C@H](CC(=O)O)NC(=O)[C@H](CC(C)C)NC(=O)[C@H](CC(C)C)NC(=O)[C@H](CCCNC(=N)N)NC(=O)[C@H](CCSC)NC(=O)[C@@H](NC(=O)[C@H](CCC(=O)O)NC(=O)[C@H](Cc1ccc(O)cc1)NC(=O)[C@@H](NC(=O)[C@H](CCCCN)NC(=O)[C@H](CCC(N)=O)NC(=O)[C@H](CC(C)C)NC(=O)[C@@H](NC(=O)[C@H](Cc1c[nH]c2ccccc12)NC(=O)[C@H](CCC(=O)O)NC(=O)[C@H](CCCCN)NC(=O)[C@H](CC(=O)O)NC(=O)CCOCCOCCOCCOCCNC(=O)CCCC[C@@H]1SC[C@@H]2NC(=O)N[C@@H]21)[C@@H](C)CC)[C@@H](C)CC)[C@@H](C)CC)C(C)C)C(=O)N[C@@H](Cc1ccc(O)cc1)C(=O)N[C@@H](CCC(=O)O)C(=O)N[C@@H](Cc1ccccc1)C(=O)N[C@@H](CCSC)C(=O)N[C@@H](CCCCN)C(=O)N[C@@H](CCCCN)C(=O)NCC(=O)O` [Compound 209], with 1.1 nM.

The values are drawn from patent US20260306644A1, “ANTIBODY RECRUITING MOLECULES FOR THE TREATMENT OF CORONAVIRUS DISEASE-19” (priority 2023, published 2026).
